Like-named read-outs stand apart in the source and are kept apart here.
Tested on: Human Jurkat T-cells (clone N)
Experiment: Jurkat T-cell activation (anti-TCR, CD69 upregulation)
Type: cell-based
In short: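 Readout is CD69 upregulation by flow cytometry (anti-CD69-APC, 20 min at 4 °C) after 20 h anti-TCR (C305, 500 ng/ml) stimulation at 37 °C.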

CC(C)Oc1ccc(Nc2nc(Nc3ccc4nn(C)cc4c3)ncc2F)cc1 [Compound R935298]
IC50: 2.32 µM

Cn1cc2cc(Nc3ncc(F)c(Nc4cccc(O)c4)n3)ccc2n1 [Compound R935299]
IC50: 0.824 µM

Cn1cc2cc(Nc3ncc(F)c(Nc4ccc5c(c4)OCCO5)n3)ccc2n1 [Compound R935300]
IC50: 3.38 µM

CCOC(=O)CCn1ncc2cc(Nc3ncc(F)c(Nc4ccc5c(c4)OCCO5)n3)ccc21 [Compound R935301]
IC50: 2.32 µM

OCCCn1ncc2cc(Nc3ncc(F)c(Nc4ccc5c(c4)OCCO5)n3)ccc21 [Compound R935302]
IC50: 0.8 µM

OCCCn1ncc2cc(Nc3ncc(F)c(Nc4cccc(O)c4)n3)ccc21 [Compound R935304]
IC50: 0.497 µM

CNC(=O)CCn1ncc2cc(Nc3ncc(F)c(Nc4cccc(O)c4)n3)ccc21 [Compound R935305]
IC50: 1.83 µM

CC(C)Oc1ccc(Nc2nc(Nc3ccc4c(cnn4CCCO)c3)ncc2F)cc1 [Compound R935307]
IC50: 1.41 µM

OCCCn1ncc2ccc(Nc3ncc(F)c(Nc4ccc5oc(CO)cc5c4)n3)cc21 [Compound R935308]
IC50: 1.27 µM

CNC(=O)CCn1ncc2cc(Nc3ncc(F)c(Nc4ccc5c(c4)OCCO5)n3)ccc21 [Compound R935309]
IC50: 0.779 µM

CNC(=O)CCn1ncc2cc(Nc3ncc(F)c(Nc4ccc(OC(C)C)cc4)n3)ccc21 [Compound R935310]
IC50: 0.88 µM

COC(=O)c1ccc(Cn2ncc3ccc(Nc4ncc(F)c(Nc5ccc6c(c5)OCCO6)n4)cc32)c(OC)c1 [Compound R935320]
IC50: > 10 µM

COC(=O)c1ccc(Cn2ncc3ccc(Nc4ncc(F)c(Nc5cccc(O)c5)n4)cc32)c(OC)c1 [Compound R935321]
IC50: > 10 µM

COc1cc(C(=O)NS(=O)(=O)c2ccccc2C)ccc1Cn1ncc2ccc(Nc3ncc(F)c(Nc4ccc(OC(C)C)cc4)n3)cc21 [Compound R935322]
IC50: > 10 µM

COc1cc(C(=O)NS(=O)(=O)c2ccccc2C)ccc1Cn1ncc2ccc(Nc3ncc(F)c(Nc4ccc5c(c4)OCCO5)n3)cc21 [Compound R935323]
IC50: > 10 µM

COc1cc(C(=O)NS(=O)(=O)c2ccccc2C)ccc1Cn1ncc2ccc(Nc3ncc(F)c(Nc4cccc(O)c4)n3)cc21 [Compound R935324]
IC50: > 10 µM

COC(=O)c1ccc(Cn2cc3ccc(Nc4ncc(F)c(Nc5ccc6c(c5)OCCO6)n4)cc3n2)c(OC)c1 [Compound R935336]
IC50: 2.88 µM

COC(=O)c1ccc(Cn2cc3ccc(Nc4ncc(F)c(Nc5cccc(O)c5)n4)cc3n2)c(OC)c1 [Compound R935337]
IC50: 2.54 µM

COC(=O)c1ccc(Cn2cc3ccc(Nc4ncc(F)c(Nc5ccc(OC(C)C)cc5)n4)cc3n2)c(OC)c1 [Compound R935338]
IC50: 5.89 µM

COc1cc(C(=O)NS(=O)(=O)c2ccccc2C)ccc1Cn1ncc2cc(Nc3ncc(F)c(Nc4ccc5c(c4)OCCO5)n3)ccc21 [Compound R935339]
IC50: > 10 µM

COc1cc(C(=O)NS(=O)(=O)c2ccccc2C)ccc1Cn1ncc2cc(Nc3ncc(F)c(Nc4cccc(O)c4)n3)ccc21 [Compound R935340]
IC50: > 10 µM

Fc1cnc(Nc2ccc3cn[nH]c3c2)nc1Nc1ccc(OC(F)(F)F)c(Cl)c1 [Compound R935368]
IC50: > 10 µM

COc1ccc(Nc2ncc([N+](=O)[O-])c(Nc3ccc(OC)c(OC)c3)n2)cc1OC [Compound R940089]
IC50: > 10 µM

CCOc1ccc(Nc2ncc([N+](=O)[O-])c(Nc3ccc(OCC)cc3)n2)cc1 [Compound R940090]
IC50: > 10 µM

O=[N+]([O-])c1cnc(Nc2ccc3c(c2)OCCO3)nc1Nc1ccc2c(c1)OCCO2 [Compound R940095]
IC50 (Homo sapiens, Jurkat): > 10 µM

O=[N+]([O-])c1cnc(Nc2ccc3c(c2)OC(F)(F)O3)nc1Nc1ccc2c(c1)OC(F)(F)O2 [Compound R940100]
IC50 (Homo sapiens, Jurkat): > 10 µM

Oc1c(Cl)cc(Nc2ncc(F)c(Nc3cc(Cl)c(O)c(Cl)c3)n2)cc1Cl [Compound R940215]
IC50 (Homo sapiens, Jurkat): > 10 µM

Cc1c(O)ccc(Nc2ncc(F)c(Nc3ccc(O)c(C)c3C)n2)c1C [Compound R940217]
IC50 (Homo sapiens, Jurkat): > 10 µM

CC(=O)Nc1ccc(Nc2ncc(F)c(Nc3ccc(NC(C)=O)cc3)n2)cc1 [Compound R940222]
IC50 (Homo sapiens, Jurkat): 9.47 µM

CCOC(=O)COc1cccc(Nc2ncc(F)c(Nc3cc(C)c(O)c(C)c3)n2)c1 [Compound R940253]
IC50: 17.4 µM

Cc1cc(Nc2nc(Nc3cccc(OCC(=O)N4CCOCC4)c3)ncc2F)cc(C)c1O [Compound R940254]
IC50: 3.76 µM

Cc1cc(Nc2nc(Nc3cccc(OCCN4CCOCC4)c3)ncc2F)cc(C)c1O [Compound R940255]
IC50: 1.51 µM

Cc1cc(Nc2nc(Nc3cccc(OCCN4CCOCC4)c3)ncc2F)cc(C)c1O [Compound R940256]
IC50: 4.75 µM

CC(C)(C)c1cccc(Nc2ncc(F)c(Nc3cccc(O)c3)n2)c1 [Compound R940257]
IC50 (Homo sapiens, Jurkat): > 10 µM

COc1ccc(Nc2nc(Nc3cccc(C(C)(C)C)c3)ncc2F)cc1OC [Compound R940260]
IC50 (Homo sapiens, Jurkat): > 10 µM

Oc1cccc(Nc2nc(NCCN3CCN(Cc4ccccc4)CC3)ncc2F)c1 [Compound R940261]
IC50 (Homo sapiens, Jurkat): 10.9 µM

COc1ccc(Nc2nc(NCCN3CCN(Cc4ccccc4)CC3)ncc2F)cc1OC [Compound R940262]
IC50 (Homo sapiens, Jurkat): 6.45 µM

COc1ccc(Nc2nc(NC3CCN(Cc4ccccc4)CC3)ncc2F)cc1OC [Compound R940263]
IC50: 10.1 µM

Oc1cccc(Nc2nc(NC3CCN(Cc4ccccc4)CC3)ncc2F)c1 [Compound R940264]
IC50: > 10 µM

Cc1cc(Nc2nc(Nc3cccc(OCC(=O)N4CCOCC4)c3)ncc2F)cc(Cl)c1O [Compound R940265]
IC50: 5.56 µM

CCOC(=O)COc1cccc(Nc2nc(Nc3cccc(C(C)(C)C)c3)ncc2F)c1 [Compound R940266]
IC50: > 10 µM

CNC(=O)COc1cccc(Nc2nc(Nc3cccc(C(C)(C)C)c3)ncc2F)c1 [Compound R940267]
IC50: > 10 µM

CCOC(=O)COc1cccc(Nc2ncc(F)c(Nc3cccc(C(C)(C)C)c3)n2)c1 [Compound R940270]
IC50: > 10 µM

Cc1cc(Nc2ncc(F)c(Nc3cccc(C(C)(C)C)c3)n2)cc(Cl)c1O [Compound R940271]
IC50 (Homo sapiens, Jurkat): > 10 µM

CNC(=O)COc1cccc(Nc2ncc(F)c(Nc3cccc(C(C)(C)C)c3)n2)c1 [Compound R940276]
IC50: 2.53 µM

CC(C)(C)c1cccc(Nc2nc(Nc3cccc(OCC(=O)NCC(O)CO)c3)ncc2F)c1 (stereo not shown) [Compound R940277]
IC50: 1.22 µM

CC(C)(C)c1cccc(Nc2nc(Nc3cccc(OCC(=O)O)c3)ncc2F)c1 [Compound R940280]
IC50: > 10 µM

COC(=O)c1cc2cc(Nc3ncc(F)c(Nc4cccc(C(C)(C)C)c4)n3)ccc2o1 [Compound R940281]
IC50 (Homo sapiens, Jurkat): > 10 µM

CC(C)(C)c1cccc(Nc2nc(Nc3cccc(OCCO)c3)ncc2F)c1 [Compound R940282]
IC50: 6.71 µM

COC(=O)c1cc2cc(Nc3ncc(F)c(Nc4cccc(C(C)C)c4)n3)ccc2o1 [Compound R940283]
IC50 (Homo sapiens, Jurkat): > 10 µM

CCOC(=O)COc1cccc(Nc2ncc(F)c(Nc3ccc4c(c3)C(=O)OC4)n2)c1 [Compound R940285]
IC50: > 10 µM

CC(C)c1cccc(Nc2nc(Nc3ccc4oc(CO)cc4c3)ncc2F)c1 [Compound R940286]
IC50: 4.4 µM

CC(C)(C)c1cccc(Nc2nc(Nc3ccc4oc(CO)cc4c3)ncc2F)c1 [Compound R940287]
IC50: 6.2 µM

CNC(=O)COc1cccc(Nc2ncc(F)c(Nc3cccc(C(C)C)c3)n2)c1 [Compound R940288]
IC50: 3.48 µM

CC(C)c1cccc(Nc2nc(Nc3cccc(OCCO)c3)ncc2F)c1 [Compound R940289]
IC50: 3.65 µM

Reference: patent US8158621B2, “Methods of treating or preventing autoimmune diseases with 2,4-pyrimidinediamine compounds” (Rigel Pharmaceuticals, Inc., priority 2002, dated 2012)
